Data on eight molecules can be found in PubChem BioAssay (NCI).

Some test systems named below: NCI-H226 lung; OVCAR-3 ovarian; T-47D breast; 786-0 renal; CCRF-CEM leukemia; SW-620 colon; SR leukemia; A498 renal; SF-295 CNS; HCT-15 colon.
Holding throughout (assay): DTP human tumour cell line panel, 48 h

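Step 1: Grow cells in 96-well plates. Step 2: Expose to compound for 48 hours at 5 concentrations. Step 3: Interpolate endpoints linearly; if unreached, use highest concentration. TGI marks complete inhibition of growth.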

Turning to `O=[N+]([O-])c1ccc(-c2nc3ccccc3o2)cc1`, the TGI in the test on NCI-H226 lung, with OVCAR-3 ovarian, with T-47D breast, with 786-0 renal, in the test with CCRF-CEM leukemia and with SW-620 colon was above 100 µM each time. The TGI with SR leukemia, in the test on A498 renal, with SF-295 CNS and in the test on HCT-15 colon was above 100 µM throughout.

For `OCC1=C[C@@](COCc2ccccc2)(OCc2ccccc2)[C@@H](OCc2ccccc2)[C@@H]1OCc1ccccc1`, the TGI with NCI-H226 lung is 35.3 µM; in the test on OVCAR-3 ovarian, 27.3 µM; in the test on T-47D breast, 82.8 µM; in the test with 786-0 renal, 52.9 µM; in the test on CCRF-CEM leukemia, 11 µM; in the test with SW-620 colon, above 100 µM. In addition, the TGI in the test on SR leukemia was found to be 33.4 µM; in the test on A498 renal, 31.8 µM; in the test on SF-295 CNS it was 46.7 µM; in the test on HCT-15 colon, 57.8 µM.

With `CCSc1nn(-c2c3ccccc3nc3ccccc23)c(=S)s1`, the TGI with NCI-H226 lung, with OVCAR-3 ovarian, with T-47D breast, in the test on 786-0 renal, with CCRF-CEM leukemia and in the test with SW-620 colon was above 100 µM in each case. The TGI with SR leukemia, in the test with A498 renal, in the test on SF-295 CNS and with HCT-15 colon was above 100 µM in each case.

Regarding `CN(CCc1ccccn1)C(=S)N/N=C/c1ccccn1`, the TGI is 0.255 µM in the test with NCI-H226 lung; 25.9 µM with OVCAR-3 ovarian; 22.2 µM in the test with T-47D breast; above 38.8 µM with 786-0 renal; below 0.01 µM with CCRF-CEM leukemia; above 100 µM in the test on SW-620 colon. In addition, the TGI was below 0.01 µM in the test with SR leukemia, 1.3 µM in the test on A498 renal, above 43.5 µM in the test on SF-295 CNS and 35.6 µM with HCT-15 colon.

On to `C1CN(C23OC4(N5CCOCC5)C5C6CC(C7C6C4C72)C53)CCO1` (stereo not given), for which the TGI in the test with NCI-H226 lung, in the test on OVCAR-3 ovarian, with T-47D breast, in the test with 786-0 renal, in the test with CCRF-CEM leukemia and in the test with SW-620 colon was above 100 µM each time. Also, the TGI in the test on SR leukemia, in the test on A498 renal, in the test with SF-295 CNS and in the test on HCT-15 colon was above 100 µM each time.

For the molecule `C=CC(=O)N1C/C(=C\c2ccc(F)cc2)C(=O)/C(=C/c2ccc(F)cc2)C1`, the TGI in the test on NCI-H226 lung is 8.78 µM; in the test with OVCAR-3 ovarian it was 1.19 µM; with T-47D breast, 39.7 µM; with 786-0 renal it was 0.346 µM; with CCRF-CEM leukemia it was above 100 µM; in the test with SW-620 colon, above 100 µM. Besides, the TGI in the test on SR leukemia was above 100 µM; with A498 renal, 1.48 µM; in the test with SF-295 CNS, 1.2 µM; with HCT-15 colon, 0.433 µM.

`COc1ccc(C2=C(N)c3ccccc3C2=O)cc1`: the TGI in the test on NCI-H226 lung, in the test with OVCAR-3 ovarian, with T-47D breast, in the test on 786-0 renal, with CCRF-CEM leukemia and with SW-620 colon was above 100 µM in each case. For the same molecule, the TGI with SR leukemia, in the test with A498 renal, with SF-295 CNS and in the test with HCT-15 colon was above 100 µM throughout.

`CC(CN(C)C)C(O)(c1ccccc1)c1ccccc1` (stereo not given): the TGI in the test with NCI-H226 lung, with OVCAR-3 ovarian, with T-47D breast, with 786-0 renal, in the test on CCRF-CEM leukemia and with SW-620 colon was above 100 µM each time. For the same molecule, the TGI in the test with SR leukemia, in the test on A498 renal, in the test with SF-295 CNS and in the test on HCT-15 colon was above 100 µM throughout.

As usually defined, the TGI is the concentration giving total growth inhibition. A lower TGI goes with more potent growth arrest.
